Test results as given in publication PMC9149975, “The diaryl-imidazopyridazine anti-plasmodial compound, MMV652103, exhibits anti-breast cancer activity” (EXCLI Journal, 2022).

Key:
[1] = biological target: T1, PIK3C2G (Homo sapiens, UniProt O75747); assay: ADP-Glo lipid kinase assay, PIK3C2G; type: biochemical
T1 construct: purchased Carna Biosciences Inc; Invitrogen Corporation
Method: A non-radiometric kinase assay (ADP-Glo™ Assay, Promega, Madison, Wi, USA) was used for measuring the kinase activity of the 2 lipid kinases, phosphatidylinositol 4-kinase beta (encoded by the PI4KB gene) and phosphatidylinositol-4-Phosphate 3-Kinase Catalytic Subunit Type 2 Gamma (encoded by the PIK3C2G gene). All kinase assays were performed in 96-well half-area microtiter plates from Greiner Bio-One (Frickenhausen, Germany) in 25 µl reaction volumes. […] In addition, the assay for PI4KB contained 3 mM MnCl2 and the assay for PIK3C2G contained 3 mM MgCl2. Kinases from external vendors (Carna Biosciences Inc.; Invitrogen Corporation; Millipore Corporation) were expressed, purified and quality-controlled by virtue of the vendors readings. The reaction cocktails were incubated at 30 °C for 60 min. The reaction was stopped with 25 µl ADP-Glo reagent per well. Plates were incubated for 40 min at RT, followed by the addition of 50 µl kinase detection reagent per well and incubation for 60 min at RT. Signal was determined with a microplate luminescence reader (Victor, Perkin Elmer). […]
For each kinase, the median value of the counts per second (cps) of three wells with complete reaction cocktails, but without kinase, was defined as "low control" (n=3). […] The residual activity (in %) for each well of each row of a particular plate was calculated by using the following formula: […]

[2] = biological target: T2, PIK3CA/ PIK3R1 (Homo sapiens, UniProt P42336); assay: ADP-Glo lipid kinase assay, PIK3CA/PIK3R1; type: biochemical; conditions: 10 µM compound
T2 construct: purchased Carna Biosciences Inc; Invitrogen Corporation
T2 sequence (P42336 whole entry): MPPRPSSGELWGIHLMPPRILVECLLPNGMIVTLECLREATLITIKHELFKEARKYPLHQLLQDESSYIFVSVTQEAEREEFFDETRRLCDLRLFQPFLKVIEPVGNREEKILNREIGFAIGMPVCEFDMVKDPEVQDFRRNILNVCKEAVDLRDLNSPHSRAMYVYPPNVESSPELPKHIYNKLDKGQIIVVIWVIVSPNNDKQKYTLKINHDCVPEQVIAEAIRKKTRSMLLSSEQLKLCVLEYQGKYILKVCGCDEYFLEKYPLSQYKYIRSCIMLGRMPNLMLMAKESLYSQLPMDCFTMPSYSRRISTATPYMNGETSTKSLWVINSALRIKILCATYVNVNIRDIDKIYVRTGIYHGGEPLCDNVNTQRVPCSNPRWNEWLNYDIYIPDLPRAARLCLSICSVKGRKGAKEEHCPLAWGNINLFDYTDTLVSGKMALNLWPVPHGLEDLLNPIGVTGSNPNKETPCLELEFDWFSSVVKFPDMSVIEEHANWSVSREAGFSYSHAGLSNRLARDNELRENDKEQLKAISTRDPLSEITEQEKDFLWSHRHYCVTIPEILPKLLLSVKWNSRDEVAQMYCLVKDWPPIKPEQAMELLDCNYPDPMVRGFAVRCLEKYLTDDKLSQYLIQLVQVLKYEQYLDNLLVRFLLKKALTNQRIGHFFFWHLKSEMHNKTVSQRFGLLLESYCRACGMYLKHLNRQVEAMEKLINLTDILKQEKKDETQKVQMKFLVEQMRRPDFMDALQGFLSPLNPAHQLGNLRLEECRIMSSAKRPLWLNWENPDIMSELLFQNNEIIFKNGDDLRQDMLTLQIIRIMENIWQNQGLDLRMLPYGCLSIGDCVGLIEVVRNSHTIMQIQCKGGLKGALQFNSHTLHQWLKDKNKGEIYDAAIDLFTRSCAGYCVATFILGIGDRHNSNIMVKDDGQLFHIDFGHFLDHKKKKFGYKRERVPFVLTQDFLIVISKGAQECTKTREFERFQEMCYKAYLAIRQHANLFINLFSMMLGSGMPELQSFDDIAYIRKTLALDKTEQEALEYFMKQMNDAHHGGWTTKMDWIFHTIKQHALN
T2 sequence (P27986 whole entry partner): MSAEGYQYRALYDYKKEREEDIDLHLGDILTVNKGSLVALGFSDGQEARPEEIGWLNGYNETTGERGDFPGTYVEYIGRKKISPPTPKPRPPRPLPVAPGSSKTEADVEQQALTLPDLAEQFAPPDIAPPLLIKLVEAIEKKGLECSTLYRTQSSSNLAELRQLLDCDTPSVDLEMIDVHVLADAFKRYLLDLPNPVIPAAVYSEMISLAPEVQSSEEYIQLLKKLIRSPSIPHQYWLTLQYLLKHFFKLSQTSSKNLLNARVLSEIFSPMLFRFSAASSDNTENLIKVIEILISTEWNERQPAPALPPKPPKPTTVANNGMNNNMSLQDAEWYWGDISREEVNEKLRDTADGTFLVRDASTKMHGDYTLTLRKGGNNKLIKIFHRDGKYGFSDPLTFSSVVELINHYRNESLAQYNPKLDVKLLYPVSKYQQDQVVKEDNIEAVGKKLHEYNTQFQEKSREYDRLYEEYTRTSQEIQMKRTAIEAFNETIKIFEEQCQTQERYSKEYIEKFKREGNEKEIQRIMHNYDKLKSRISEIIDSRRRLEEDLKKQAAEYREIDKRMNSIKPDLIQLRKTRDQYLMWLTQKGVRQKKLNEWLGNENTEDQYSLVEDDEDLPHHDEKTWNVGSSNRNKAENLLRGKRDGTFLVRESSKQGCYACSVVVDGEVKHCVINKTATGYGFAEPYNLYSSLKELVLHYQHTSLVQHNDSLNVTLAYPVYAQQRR

[3] = biological target: T3, PI4K2B (Homo sapiens, UniProt Q8TCG2); assay: ADP-Glo lipid kinase assay, PI4K2B; type: biochemical; conditions: 10 µM compound
T3 construct: purchased Carna Biosciences Inc; Invitrogen Corporation
T3 sequence (Q8TCG2 whole entry): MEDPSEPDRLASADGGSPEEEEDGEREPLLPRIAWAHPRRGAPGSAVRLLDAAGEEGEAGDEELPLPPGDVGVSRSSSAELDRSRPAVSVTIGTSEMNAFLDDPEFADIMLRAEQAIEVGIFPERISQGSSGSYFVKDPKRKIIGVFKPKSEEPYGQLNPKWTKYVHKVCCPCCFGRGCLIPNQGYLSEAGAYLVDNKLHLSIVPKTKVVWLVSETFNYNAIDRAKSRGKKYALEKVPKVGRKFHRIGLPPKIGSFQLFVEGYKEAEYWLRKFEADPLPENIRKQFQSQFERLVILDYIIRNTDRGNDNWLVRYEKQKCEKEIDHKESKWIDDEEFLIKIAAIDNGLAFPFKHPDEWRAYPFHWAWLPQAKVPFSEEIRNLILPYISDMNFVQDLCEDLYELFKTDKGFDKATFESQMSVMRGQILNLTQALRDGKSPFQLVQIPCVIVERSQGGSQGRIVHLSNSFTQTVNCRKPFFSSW

[4] = tested on: MCF7 cells; assay: Scratch motility assay, MCF7; type: cell-based, human; conditions: IC50 and 2 x IC50; 3, 6, 9 h
Method: Cells were grown to 100 % confluence in 12-well tissue culture plates and the following day a sterile 2 µl pipette tip was used to make a vertical scratch in the cell monolayer of each well and the cells treated with mitomycin C (M4287; Sigma Aldrich) at a final concentration of 10 μg/ml to inhibit proliferation. Cells were subsequently treated with MMV652103 or vehicle and imaged at 0, 3, 6 and 9 h post wound formation and ImageJ v1.50i software was used to calculate the area of the scratch (Schneider et al., 2012[73]). The total areas migrated was determined by subtracting the area for a specific time point from the area measured at 0 h.

[5] = tested on: MCF7 tumors; assay: Chick embryo CAM xenograft: tumor weight and metastasis; type: in vivo; conditions: every 48 h E10-E16, weighed E18
Method: All studies and procedures were conducted with prior approval of the Animal Ethics Committee of the University of Cape Town (FHS AEC REF NO:016/025) in accordance with the South African National Standard (SANS 10386:008) for the Care and Use of Animals for Scientific Purposes (SABS, 2015[71]), and guidelines from the Department of Health (2015[21]). Fertilized White Leghorn eggs were incubated at 37.5 °C with 50 % relative humidity for 9 days. At stage E9, the chorioallantoic membrane (CAM) was dropped by drilling a small hole through the eggshell into the air sac and a 1 cm^2 window was cut in the eggshell above the CAM. Cultured MCF7 cells were detached with trypsin, washed with complete medium and suspended in PBS. An inoculum of MCF7 cells was grafted onto the CAM of each E9 egg (21 eggs were used for each condition) and at E10, tumors were detectable. MCF7 tumors were treated every 48 h (E10, E12, E14, E16) by dropping 100 μl of vehicle (0.25 % DMSO in PBS), a reference compound (Paclitaxel), or MMV652103, onto the tumour. At E18 the upper portion of the CAM was removed, transferred to PBS and the tumors cut away from normal CAM tissue and weighed. A one-way ANOVA analysis with post-tests was done. In parallel, a 1 cm^2 portion of the lower CAM was collected to evaluate the number of metastatic cells. The relative amount of metastasis was calculated as follows: Tumor cells were grafted onto the upper chorioallantoic membrane (CAM) and during metastasis the cells invade the epithelium and basement membrane of the upper CAM and move through connective tissue into the vasculature into the lower CAM. The cells in the lower CAM are then harvested and genomic DNA is extracted and analyzed by qPCR with specific primers for Alu sequences which are only found in higher primates i.e. it allows for the distinction between human tumor cells and the host chick cells. Statistical analysis was directly performed on data from the Bio-Rad CFX Manager 3.1 software.

T1 sequence (O75747 whole entry): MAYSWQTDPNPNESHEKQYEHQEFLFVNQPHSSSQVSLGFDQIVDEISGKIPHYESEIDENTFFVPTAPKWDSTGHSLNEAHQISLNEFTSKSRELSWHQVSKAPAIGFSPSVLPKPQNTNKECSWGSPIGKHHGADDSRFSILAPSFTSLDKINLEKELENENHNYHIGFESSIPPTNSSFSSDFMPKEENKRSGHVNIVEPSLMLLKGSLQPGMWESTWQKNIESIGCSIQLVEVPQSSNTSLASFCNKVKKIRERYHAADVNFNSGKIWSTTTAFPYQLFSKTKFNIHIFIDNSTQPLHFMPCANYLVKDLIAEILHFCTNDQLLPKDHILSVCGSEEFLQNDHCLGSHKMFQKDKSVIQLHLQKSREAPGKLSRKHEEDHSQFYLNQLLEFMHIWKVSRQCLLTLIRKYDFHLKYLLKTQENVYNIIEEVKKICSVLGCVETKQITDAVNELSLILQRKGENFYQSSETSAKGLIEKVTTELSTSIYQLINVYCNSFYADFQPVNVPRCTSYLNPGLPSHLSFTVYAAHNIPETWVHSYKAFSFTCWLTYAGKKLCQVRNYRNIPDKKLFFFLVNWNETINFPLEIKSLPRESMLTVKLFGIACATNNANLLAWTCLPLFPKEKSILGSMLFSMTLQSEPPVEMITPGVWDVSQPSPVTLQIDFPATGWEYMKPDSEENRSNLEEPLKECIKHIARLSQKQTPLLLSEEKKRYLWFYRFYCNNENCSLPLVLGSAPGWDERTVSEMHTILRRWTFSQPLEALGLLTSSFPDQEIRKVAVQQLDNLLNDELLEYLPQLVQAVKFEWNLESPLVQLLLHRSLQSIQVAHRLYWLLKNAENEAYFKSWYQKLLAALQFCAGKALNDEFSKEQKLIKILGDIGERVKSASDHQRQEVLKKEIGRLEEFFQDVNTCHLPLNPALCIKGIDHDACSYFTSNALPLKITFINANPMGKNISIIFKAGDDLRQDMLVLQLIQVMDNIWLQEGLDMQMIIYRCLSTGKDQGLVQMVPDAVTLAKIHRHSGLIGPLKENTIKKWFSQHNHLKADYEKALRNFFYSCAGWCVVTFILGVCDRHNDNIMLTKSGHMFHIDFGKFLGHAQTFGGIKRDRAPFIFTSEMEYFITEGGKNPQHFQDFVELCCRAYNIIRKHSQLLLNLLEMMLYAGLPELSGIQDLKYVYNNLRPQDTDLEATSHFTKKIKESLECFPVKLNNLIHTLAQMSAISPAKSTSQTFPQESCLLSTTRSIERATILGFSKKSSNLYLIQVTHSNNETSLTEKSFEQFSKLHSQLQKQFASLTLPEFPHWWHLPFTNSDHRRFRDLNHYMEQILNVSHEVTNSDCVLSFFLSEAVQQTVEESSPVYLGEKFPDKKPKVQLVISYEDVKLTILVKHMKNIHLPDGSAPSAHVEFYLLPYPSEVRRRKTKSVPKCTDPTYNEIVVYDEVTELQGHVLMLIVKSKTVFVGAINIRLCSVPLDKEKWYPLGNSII

**Q.** `CS(=O)(=O)c1ccc(-c2cnc3ccc(-c4cccc(S(C)(=O)=O)c4)nn23)cc1` [MMV652103] was tested. Which remaining activity at 10 µM ([1]; 10 µM compound) did it give?
**A.** 4%

**Q.** What about the IC50 ([1]; ADP-Glo) of the same compound?
**A.** 85 nM

**Q.** And the remaining activity at 10 µM [2]?
**A.** 3%

**Q.** What about the remaining activity at 10 µM [3] of the same compound?
**A.** 50%

**Q.** What about the MCF7 cell migration [4] of the same compound?
**A.** significant reduction

**Q.** And the tumor weight reduction ([5]; 4.4 μM)?
**A.** 34.89%

**Q.** What about the tumor weight reduction ([5]; 22 μM) of the same compound?
**A.** 41.71%
